Test results: patent US20250179049A1, “SALTS OF HETEROCYCLIC INHIBITORS OF MONOCARBOXYLATE TRANSPORTER 4 FOR THE TREATMENT OF DISEASE” (Vettore, LLC, priority 2022, published 2025)
Counter-ions that a name gives are not always drawn. Like-named read-outs stand apart in the source and are kept apart here.

Columns and labels:
[1] = Dog pharmacokinetics, powder in capsule; type: in vivo, beagle dogs
Protocol: Groups, Dosing, and Collection. The pharmacokinetics of the free acid and the tris salt of Compound 1 administered by oral capsules was assessed in dogs. Three male beagle dogs were administered a single dose of 3 mg/kg Compound 1 free acid on Day 1 of the study, and a single dose of 3 mg/kg Compound 1 tris salt on Day 8 of the study. Plasma was collected pre-dose, and at 0.5, 1, 2, 4, 8, 12 and 24 hours post-dose via puncture of peripheral veins.
(§1) LC MS-MS Analysis. Liquid Chromatography with tandem mass spectrometry was used to determine plasma concentrations of Compound 1 Free Acid and Compound 1 Tris Salt in plasma samples collected at prescribed time points. Instrumentation included YMC-Triart C18, S-5 μm (50×2.1 mm) HPLC column, liquid chromatograph Shimadzu LC-30AD with communications bus module CBM-20A and Auto SIL-20AC HT; and a Triple Quad 5500 LC/MS/MS instrument. Tolbutamide was used as an internal standard.

[2] = Dog pharmacokinetics, oral gavage suspension; type: in vivo, beagle dogs; settings: for MRT last / half-life: dog, plasma; for MRT last / half-life / ClF: male beagle dogs, oral suspension, mean
Protocol: In a follow-up study, the pharmacokinetics of tris salt Compound 1 were investigated via oral gavage of a 0.5% methylcellulose in saline formulation. Two Groups of animals were tested. In Group 1, three male beagle dogs were administered a single dose of 3 mg/kg Compound 1 tris salt. In Group 2, three male beagle dogs were administered a single dose of 30 mg/kg Compound 1 tris salt. Plasma was collected pre-dose, and at 0.5, 1, 2, 4, 8, 12 and 24 hours post-dose via puncture of peripheral veins.
as §1

[3] = 28-day repeat-dose toxicity study in rats; type: in vivo; settings: Sprague Dawley, rat; for AUC(0-t) / Cmax: plasma; for AUC(0-t): read-out: AUC0-24 at NOAEL; for Cmax: read-out: Cmax at NOAEL
Protocol: (§2) Compound 1 was administered to Sprague Dawley rats by oral gavage at doses of 25, 75, and 250 mg/kg/day (females) and 40, 120, and 400 mg/kg/day (males) for 28 days. Compound 1-related mortality occurred in 8 of the 15 toxicity males administered 400 mg/kg/day beginning on Day 8 through 24. […] Target tissues included bone marrow, spleen, thymus, liver, lymph nodes, epididymides, seminal vesicles, prostate, testes, uterus, and ovaries.
(§3) Compound 1 tris salt was evaluated for safety in 7- and 28-day studies in rats and dogs. […] The NOAELs for this rat study were 120 mg/kg/day for males and 75 mg/kg/day for females. […] The NOAEL determined in the 28-day dog GLP study was 150 mg/kg/day. These correspond to human equivalent doses (HEDs) of: • Rat: 75 mg/kg×0.16=12 mg/kg • Dog: 150 mg/kg×0.54=81 mg/kg

[4] = tested on: beagle dogs; test: in vivo; settings: both, dog, 28 days
Protocol: (§4) Compound 1 was administered to beagle dogs by oral gavage in a range finding study at doses of 30, 79, 240, or 790 mg/kg. […] Compound 1 was administered at doses of 10, 50, and 150 mg/kg/day in the pivotal repeat dose toxicity studies for 28 days.
as §3

[5] = molecular target: hERG channel (Homo sapiens, UniProt Q12809); test: in vitro hERG assay; type: cell-based; settings: determination precluded by potential cytotoxicity at >300 μM; read-out: half maximal inhibitory concentration (IC50) against the hERG channel
Protocol: (§5) The safety pharmacology of Compound 1 and its tris salt was evaluated in an in vitro human ether-à-go-go related gene (hERG) assay, a behavioral study in Sprague Dawley rats, and a respiratory and cardiovascular system assessment using electrocardiogram (ECG)-telemetered beagle dogs. […] Determination of the IC50 against the hERG channel was precluded due to potential cytotoxicity at doses >300 μM. […] Cardiovascular safety pharmacology assessments noted decreases in PR interval duration that were detected up to 9 hours post administration of Compound 1 and were usually dose related and associated with potential changes in heart rate. These changes were considered biologically insignificant due to their small magnitude (up to 10 msec compared to vehicle control), association with potential increases in heart rate, and the absence of correlated findings.

[6] = tested on: Sprague Dawley rats; test: Behavioral safety pharmacology study; type: in vivo; settings: oral dose of up to 400 mg/kg, male rats (highest dose tested)
Protocol: as §5

[7] = tested on: beagle dogs; test: Respiratory and cardiovascular assessment in ECG-telemetered dogs; type: in vivo
Protocol: as §5

[8] = ADME: intravenous clearance and oral bioavailability; type: in vivo
Description: The absorption, distribution, metabolism, and excretion properties of Compound 1 have been characterized in both in vitro and in vivo studies. Sensitive and selective bioanalytical methods have been developed and validated for rat and dog plasma. Following intravenous administration, the systemic clearance of Compound 1 in all species evaluated was considered low. Following oral administration, bioavailability was generally greater than 30% in the species evaluated. Initial studies utilized the Compound 1 free form. […] All Good Laboratory Practice (GLP) studies were performed using the Compound 1 tris salt form. Dose levels indicate Compound 1 free form equivalents unless otherwise noted.

[9] = tested on: Sprague Dawley rats; test: 28-day repeat-dose toxicity study in rats; type: in vivo; settings: male, rat, in vivo, 400 mg/kg/day, 28 days
Protocol: as §2, §3

[10] = tested on: beagle dogs; test: Range finding toxicity study in dogs; type: in vivo
Protocol: as §4

[11] = tested on: primary human lung fibroblasts; test: Fibroblast-to-myofibroblast transition; type: cell-based
Description: The reduction of lung fibrosis upon MCT4 inhibition is coupled with changes in serum metabolites that indicates turnover of extracellular matrix protein and increased fatty acid oxidation.

[12] = tested on: bleomycin-induced lung fibrosis; test: Bleomycin-induced lung fibrosis model; type: in vivo, mice
Protocol: The reduction of lung fibrosis upon MCT4 inhibition is coupled with changes in serum metabolites that indicates turnover of extracellular matrix protein and increased fatty acid oxidation. […] The effects of Compound 1, alone or in combination with approved IPF drugs pirfenidone or nintedanib, were studied in the bleomycin-induced lung fibrosis model in therapeutic mode. Compound 1 was dosed at 3 mg/kg, BID; pirfenidone was dosed at 100 mg/kg, BID; and nintedanib was dosed at 50 mg/kg, QD, all via oral gavage.

[13] = male beagle dogs, powder in capsule, 3 mg/kg, mean
[14] = male, beagle, dog, plasma, po, 3 mg/kg, male beagle dogs, powder in capsule, mean

Chain of hERG channel (Q12809 whole entry): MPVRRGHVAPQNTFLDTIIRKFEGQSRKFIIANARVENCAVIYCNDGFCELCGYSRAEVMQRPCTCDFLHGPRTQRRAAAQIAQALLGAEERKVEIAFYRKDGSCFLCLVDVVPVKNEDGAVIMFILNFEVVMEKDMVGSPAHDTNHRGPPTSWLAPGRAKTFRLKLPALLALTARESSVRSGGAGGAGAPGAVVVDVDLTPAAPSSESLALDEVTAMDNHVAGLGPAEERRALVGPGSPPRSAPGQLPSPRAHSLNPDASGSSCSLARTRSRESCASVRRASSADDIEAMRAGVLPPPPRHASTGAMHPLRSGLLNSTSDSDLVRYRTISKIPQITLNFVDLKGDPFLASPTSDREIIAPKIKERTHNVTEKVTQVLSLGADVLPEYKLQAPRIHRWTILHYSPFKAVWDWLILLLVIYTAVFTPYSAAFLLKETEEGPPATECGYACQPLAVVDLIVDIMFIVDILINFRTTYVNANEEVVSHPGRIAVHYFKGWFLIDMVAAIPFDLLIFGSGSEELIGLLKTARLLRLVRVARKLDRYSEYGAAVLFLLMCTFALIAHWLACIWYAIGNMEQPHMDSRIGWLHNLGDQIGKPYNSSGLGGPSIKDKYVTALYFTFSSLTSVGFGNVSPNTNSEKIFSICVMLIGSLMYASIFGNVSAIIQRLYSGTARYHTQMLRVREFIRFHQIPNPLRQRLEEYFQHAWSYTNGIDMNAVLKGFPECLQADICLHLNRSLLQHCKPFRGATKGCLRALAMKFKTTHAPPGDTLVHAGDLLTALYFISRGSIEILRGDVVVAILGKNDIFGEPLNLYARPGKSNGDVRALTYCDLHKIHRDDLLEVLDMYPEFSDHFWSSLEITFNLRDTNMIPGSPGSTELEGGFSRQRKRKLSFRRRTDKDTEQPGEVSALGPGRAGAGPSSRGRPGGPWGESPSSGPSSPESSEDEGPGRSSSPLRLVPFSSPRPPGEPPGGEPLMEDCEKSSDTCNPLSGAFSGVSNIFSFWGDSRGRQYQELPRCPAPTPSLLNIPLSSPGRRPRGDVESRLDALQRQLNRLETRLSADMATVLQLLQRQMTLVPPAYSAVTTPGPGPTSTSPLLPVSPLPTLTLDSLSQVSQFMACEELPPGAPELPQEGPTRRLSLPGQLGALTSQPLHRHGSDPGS

SMILES: CC(C)(OCc1cc(-c2cccc(OC3CCC3)c2)n(-c2ccccc2N2CCC2)n1)C(=O)O [Compound 1 tris salt, tris salt of 2-((1-(2-(azetidin-1-yl)phenyl)-5-(3-cyclobutoxyphenyl)-1H-pyrazol-3-yl)methoxy)-2-methylpropanoic acid]
- Half-life compared to free acid ([1]; dogs): lower
- Mean residence time compared to free acid ([1]; dogs): increased
- Total drug exposure across time (AUClast and AUCInf) compared to free acid ([1]; dogs, powder in capsule and suspension formulations): higher
- ClF [1, 13]: 756
- MRTlast [1, 13]: 7.89 h
- T1/2 [1, 13]: 3.63 h
- MRT last ([2]; 3 mg/kg): 2.34 h
- half-life ([2]; 3 mg/kg): 4.74 h
- MRT last ([2]; 30 mg/kg): 3.81 h
- half-life ([2]; 30 mg/kg): 3.69 h
- Clinical symptoms ([2]; dogs, single 3 or 30 mg/kg oral gavage dose): No abnormal clinical symptoms were observed
- ClF ([2]; 3 mg/kg): 602
- ClF ([2]; 30 mg/kg): 547
- Human equivalent dose of NOAEL at 28 days ([3]; female, in vivo, 75 mg/kg): 12 mg/kg
- Adverse effects [4]: no Compound 1 tris salt-related adverse effects

SMILES: CC(C)(OCc1cc(-c2cccc(OC3CCC3)c2)n(-c2ccccc2N2CCC2)n1)C(=O)O [Compound 1, 2-((1-(2-(azetidin-1-yl)phenyl)-5-(3-cyclobutoxyphenyl)-1H-pyrazol-3-yl)methoxy)-2-methylpropanoic acid]
- Clinical symptoms ([1]; dogs, single 3 mg/kg oral capsule dose): No abnormal clinical symptoms were observed
- ClF ([1]; male beagle dogs, powder in capsule, 3 mg/kg, mean, listed as Free Acid): 2505
- MRT last [1, 14]: 5.39 h
- half-life [1, 14]: 6.33 h
- IC50 [5]: > 300 µM
- Behavioral effects [6]: no Compound 1-related behavioral effects
- Time post administration at which decreases in PR interval duration were detected ([7]; dogs): up to 9 hours
- Decrease in PR interval duration, magnitude ([7]; dogs, compared to vehicle control): up to 10 msec
- Respiratory effects ([7]; oral dose of up to 150 mg/kg, dogs (highest dose tested)): no significant respiratory effects
- Systemic clearance ([8]; intravenous administration, all species evaluated): low
- bioavailability ([8]; plasma, oral administration, species evaluated): > 30%
- NOAEL at 28 days ([3]; in vivo, male rats, 28 days oral gavage, read-out: NOAEL): 120 mg/kg/day
- AUC(0-t) ([3]; po, female rats, 75 mg/kg/day): 3230 µg·h/mL
- Cmax ([3]; po, female rats, 75 mg/kg/day): 198 µg/mL
- AUC(0-t) ([3]; po, male rats, 120 mg/kg/day): 2780 µg·h/mL
- Cmax ([3]; po, male rats, 120 mg/kg/day): 180 µg/mL
- NOAEL at 28 days ([3]; female, in vivo, po): 75 mg/kg/day
- Compound-related mortality [9]: 8 of the 15
- Dose at which decreased thymus weights were observed ([10]; dogs): ≥ 240 mg/kg
- Clinical observations ([10]; dogs, oral gavage 30, 79, 240, or 790 mg/kg, all dose levels): Watery feces and emesis were occasionally observed
- Electrolyte changes ([10]; male dogs, 790 mg/kg): increased potassium and decreased sodium and chloride
- Fibroblast-to-myofibroblast transition [11]: attenuates the fibroblast-to-myofibroblast transition
- Production of alpha-smooth muscle actin (αSMA) [11]: reducing the production
- Lung fibrosis ([12]; aged (>60 week) mice): reduced lung fibrosis
- Lung lactate levels ([12]; aged (>60 week) mice): reduction in lung lactate levels
- Lung fibrosis ([12]; bleomycin-induced mouse model of IPF): reduces lung fibrosis
- Minimal efficacious dose ([12]; twice daily (BID), bleomycin-induced mouse model of IPF): 3 mg/kg
